PubChem BioAssay (NCI)
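Briefly, cells in 96-well plates were exposed to five compound concentrations for 48 h, and endpoints were estimated by linear interpolation. TGI is the concentration that stops growth completely.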

Legend:
Assay in all cases: DTP human tumour cell line panel, 48 h
[1] = tested on: HS 578T breast
[2] = tested on: RXF 393 renal
[3] = tested on: A549 NSCLC
[4] = tested on: M14 melanoma
[5] = tested on: LOX IMVI melanoma
[6] = tested on: NCI-H522 lung
[7] = tested on: MALME-3M melanoma
[8] = tested on: IGROV1 ovarian
[9] = tested on: HL-60(TB) leukemia
[10] = tested on: NCI/ADR-RES ovarian
[11] = tested on: A498 renal
[12] = tested on: CCRF-CEM leukemia
[13] = tested on: ACHN renal
[14] = tested on: K-562 leukemia
[15] = tested on: NCI-H226 lung
[16] = tested on: NCI-H460 lung
[17] = tested on: T-47D breast
[18] = tested on: SK-MEL-5 melanoma
[19] = tested on: CAKI-1 renal
[20] = tested on: EKVX NSCLC
[21] = tested on: OVCAR-3 ovarian
[22] = tested on: HOP-92 NSCLC
[23] = tested on: OVCAR-4 ovarian
[24] = tested on: 786-0 renal
[25] = tested on: HOP-62 NSCLC
[26] = tested on: DU-145 prostate
[27] = tested on: SW-620 colon
[28] = tested on: SF-539 CNS
[29] = tested on: TK-10 renal
[30] = tested on: RPMI-8226 leukemia
[31] = tested on: SNB-19 CNS
[32] = tested on: NCI-H23 lung
[33] = tested on: HCT-15 colon
[34] = tested on: MDA-MB-435
[35] = tested on: PC-3 prostate
[36] = tested on: SF-268 CNS
[37] = tested on: UACC-62 melanoma
[38] = tested on: HCT-116 colon
[39] = tested on: KM12 colon
[40] = tested on: SK-OV-3 ovarian
[41] = tested on: HCC-2998 colon
[42] = tested on: UO-31 renal
[43] = tested on: SN12C renal
[44] = tested on: COLO 205 colon
[45] = tested on: MOLT-4 leukemia
[46] = tested on: MDA-MB-231 breast
[47] = tested on: UACC-257 melanoma
[48] = tested on: MDA-N
[49] = tested on: SK-MEL-2 melanoma
[50] = tested on: SF-295 CNS
[51] = tested on: HT29 colon
[52] = tested on: SK-MEL-28 melanoma
[53] = tested on: MCF7 breast
[54] = tested on: OVCAR-8 ovarian
[55] = tested on: U251 CNS
[56] = tested on: OVCAR-5 ovarian
[57] = tested on: SNB-75 CNS
[58] = tested on: BT-549 breast
[59] = tested on: SR leukemia

CCOC(=O)c1nc(SC)sc1NC(=O)c1ccc(OC)cc1
TGI [1]: > 100 µM
TGI [2]: > 100 µM
TGI [3]: > 100 µM
TGI [4]: > 100 µM
TGI [5]: > 100 µM
TGI [6]: > 100 µM
TGI [7]: 88.8 µM
TGI [8]: > 100 µM
TGI [9]: > 100 µM
TGI [10]: > 100 µM
TGI [11]: 84.6 µM
TGI [12]: > 100 µM
TGI [13]: > 100 µM
TGI [14]: > 100 µM
TGI [15]: > 100 µM
TGI [16]: > 100 µM
TGI [17]: > 100 µM
TGI [18]: > 100 µM
TGI [19]: > 100 µM
TGI [20]: > 100 µM
TGI [21]: > 100 µM
TGI [22]: > 100 µM
TGI [23]: 89.9 µM
TGI [24]: > 100 µM
TGI [25]: > 100 µM
TGI [26]: > 100 µM
TGI [27]: > 100 µM
TGI [28]: 34.9 µM
TGI [29]: 54.7 µM
TGI [30]: > 100 µM
TGI [31]: > 100 µM
TGI [32]: > 100 µM
TGI [33]: > 100 µM
TGI [34]: > 100 µM
TGI [35]: > 100 µM
TGI [36]: > 100 µM
TGI [37]: > 100 µM
TGI [38]: 48.2 µM
TGI [39]: > 100 µM
TGI [40]: > 100 µM
TGI [41]: > 100 µM
TGI [42]: > 100 µM
TGI [43]: > 100 µM
TGI [44]: > 100 µM
TGI [45]: > 100 µM
TGI [46]: > 100 µM
TGI [47]: > 100 µM
TGI [48]: > 100 µM
TGI [49]: > 100 µM
TGI [50]: > 100 µM
TGI [51]: > 100 µM
TGI [52]: > 100 µM
TGI [53]: > 100 µM
TGI [54]: > 100 µM
TGI [55]: 55.4 µM
TGI [56]: > 100 µM

COC(=O)[C@H](Cc1ccccc1)NC(=O)N(CCN(CCC#N)C(=O)N[C@H](C(=O)OC)C(C)C)c1ccccc1
TGI [1]: > 100 µM
TGI [2]: > 100 µM
TGI [3]: > 100 µM
TGI [57]: > 100 µM
TGI [4]: > 100 µM
TGI [5]: > 100 µM
TGI [6]: > 100 µM
TGI [7]: > 100 µM
TGI [8]: > 100 µM
TGI [10]: > 100 µM
TGI [11]: > 100 µM
TGI [12]: > 100 µM
TGI [13]: > 100 µM
TGI [15]: > 100 µM
TGI [17]: > 100 µM
TGI [18]: > 100 µM
TGI [19]: > 100 µM
TGI [20]: > 100 µM
TGI [21]: > 100 µM
TGI [22]: 80.5 µM
TGI [23]: > 100 µM
TGI [24]: > 100 µM
TGI [25]: > 100 µM
TGI [26]: > 100 µM
TGI [27]: > 100 µM
TGI [28]: > 100 µM
TGI [29]: > 100 µM
TGI [30]: > 100 µM
TGI [31]: > 100 µM
TGI [32]: > 100 µM
TGI [33]: > 100 µM
TGI [34]: > 100 µM
TGI [58]: > 100 µM
TGI [35]: > 100 µM
TGI [36]: > 100 µM
TGI [37]: > 100 µM
TGI [38]: > 100 µM
TGI [39]: > 100 µM
TGI [40]: > 100 µM
TGI [41]: > 100 µM
TGI [42]: > 100 µM
TGI [43]: > 100 µM
TGI [44]: > 100 µM
TGI [45]: > 100 µM
TGI [46]: > 100 µM
TGI [47]: > 100 µM
TGI [48]: > 100 µM
TGI [49]: > 100 µM
TGI [50]: > 100 µM
TGI [52]: > 100 µM
TGI [53]: > 100 µM
TGI [54]: > 100 µM
TGI [55]: > 100 µM
TGI [56]: > 100 µM

COC(=O)c1sc2nc(Nc3ccccc3)c(=Nc3ccccc3)sc2c1C
TGI [1]: > 100 µM
TGI [2]: 80.5 µM
TGI [3]: > 100 µM
TGI [57]: > 100 µM
TGI [5]: > 100 µM
TGI [6]: > 100 µM
TGI [7]: > 100 µM
TGI [8]: > 100 µM
TGI [9]: > 100 µM
TGI [10]: > 100 µM
TGI [11]: > 100 µM
TGI [12]: > 100 µM
TGI [13]: > 100 µM
TGI [14]: > 100 µM
TGI [15]: > 100 µM
TGI [16]: > 100 µM
TGI [17]: > 100 µM
TGI [18]: > 100 µM
TGI [59]: > 100 µM
TGI [19]: > 100 µM
TGI [20]: > 100 µM
TGI [22]: 92 µM
TGI [23]: > 100 µM
TGI [24]: > 100 µM
TGI [25]: > 100 µM
TGI [26]: > 100 µM
TGI [27]: > 100 µM
TGI [28]: > 100 µM
TGI [29]: > 100 µM
TGI [30]: > 100 µM
TGI [31]: > 100 µM
TGI [32]: > 100 µM
TGI [33]: > 100 µM
TGI [34]: > 100 µM
TGI [35]: > 100 µM
TGI [36]: > 100 µM
TGI [37]: > 100 µM
TGI [38]: > 100 µM
TGI [39]: > 100 µM
TGI [40]: > 100 µM
TGI [41]: > 100 µM
TGI [42]: > 100 µM
TGI [43]: > 100 µM
TGI [44]: > 100 µM
TGI [45]: > 100 µM
TGI [46]: > 100 µM
TGI [47]: > 100 µM
TGI [48]: > 100 µM
TGI [49]: > 100 µM
TGI [50]: > 100 µM
TGI [51]: > 100 µM
TGI [52]: > 100 µM
TGI [54]: > 100 µM
TGI [55]: > 100 µM
TGI [56]: > 100 µM

CCOC(=O)c1ccc(-c2onc(C)c2Br)[nH]1
TGI [1]: > 100 µM
TGI [2]: 96.1 µM
TGI [3]: > 100 µM
TGI [57]: > 100 µM
TGI [4]: > 100 µM
TGI [6]: > 100 µM
TGI [7]: > 100 µM
TGI [8]: > 100 µM
TGI [10]: > 100 µM
TGI [11]: > 100 µM
TGI [13]: > 100 µM
TGI [14]: > 100 µM
TGI [16]: > 100 µM
TGI [17]: > 100 µM
TGI [18]: > 100 µM
TGI [19]: > 100 µM
TGI [20]: > 100 µM
TGI [21]: > 100 µM
TGI [22]: 92 µM
TGI [23]: > 100 µM
TGI [24]: > 100 µM
TGI [25]: > 100 µM
TGI [26]: > 100 µM
TGI [27]: > 100 µM
TGI [29]: > 100 µM
TGI [30]: > 100 µM
TGI [31]: > 100 µM
TGI [32]: > 100 µM
TGI [33]: > 100 µM
TGI [34]: > 100 µM
TGI [58]: > 100 µM
TGI [35]: > 100 µM
TGI [36]: > 100 µM
TGI [37]: > 100 µM
TGI [38]: > 100 µM
TGI [39]: > 100 µM
TGI [40]: > 100 µM
TGI [41]: > 100 µM
TGI [42]: > 100 µM
TGI [44]: > 100 µM
TGI [45]: > 100 µM
TGI [46]: > 100 µM
TGI [47]: > 100 µM
TGI [48]: > 100 µM
TGI [49]: > 100 µM
TGI [50]: > 100 µM
TGI [51]: > 100 µM
TGI [52]: > 100 µM
TGI [53]: > 100 µM
TGI [54]: > 100 µM
TGI [55]: > 100 µM
TGI [56]: > 100 µM
